Reference: publication PMC12749166, “Fragment-based drug design of a bacterial kinase inhibitor capable of increasing the antibiotic sensitivity of clinical isolates” (Communications Chemistry, 2025)
Converted amounts (≈) assume the structure as drawn. Where two headings read alike, the source gives them in different places.

What was measured:
APH(2”)-IVa [1] = target: T1, APH(2”)-IVa (Enterococcus casseliflavus, UniProt O68183); assay: biochemical; conditions: Ki (µM), inhibition constant, ATP-competitive; 0-2 mM MgATP, 100 µM kanamycin A, global fitting
APH(2”)-IVa [2] = target: T1, APH(2”)-IVa; assay: biochemical; assay type: binding; conditions: read-out: ΔTm (°C)
Method: Thermal shift assays were performed using an RTqPCR machine Mx3005P (Stratagene) in 96-well plates (Thermo-Fast low Profile, ThermoScientific) by mixing the protein at 5 µM, SYPRO® Orange (Sigma Aldrich) at […], and fragments at 500 µM. Fluorescence was followed with Cy3 and SYAL filters. Denaturation curves were collected using MxPro-Mx3005P v4.10 software and analyzed using the implemented version of wTSA-CRAFT[36].

APH(2”)-IVa [3] = target: T1, APH(2”)-IVa
[4] = test system: P. aeruginosa clinical isolates; assay: MIC by broth micro-dilution; assay type: cell-based
S. aureus C0032 [5] = assay: MIC by broth micro-dilution; assay type: cell-based; conditions: S. aureus C0032, aph(3')-IIIa ant(6)
S. aureus C0032 [6] = assay: Checkerboard assay of 83 with kanamycin A; assay type: cell-based; conditions: for checkerboard well reading (growth): Supp. Figure 3 C, 83 0 µg.mL-1
P. aeruginosa C0307 = assay: Checkerboard assay of 83 with kanamycin A; assay type: cell-based; conditions: for MIC of kanamycin A: [83] 0 µg mL^−1, 18 h at 37 °C; for checkerboard well reading (growth): 83 0 µg.mL-1
[7] = Pseudomonas aeruginosa, P. aeruginosa C0214, aph(3')-IIb, read-out: MIC
[8] = Pseudomonas aeruginosa, P. aeruginosa C0307, aph(3')-IIb, read-out: MIC
[9] = Staphylococcus aureus, read-out: MIC

T1 sequence (O68183 1-301): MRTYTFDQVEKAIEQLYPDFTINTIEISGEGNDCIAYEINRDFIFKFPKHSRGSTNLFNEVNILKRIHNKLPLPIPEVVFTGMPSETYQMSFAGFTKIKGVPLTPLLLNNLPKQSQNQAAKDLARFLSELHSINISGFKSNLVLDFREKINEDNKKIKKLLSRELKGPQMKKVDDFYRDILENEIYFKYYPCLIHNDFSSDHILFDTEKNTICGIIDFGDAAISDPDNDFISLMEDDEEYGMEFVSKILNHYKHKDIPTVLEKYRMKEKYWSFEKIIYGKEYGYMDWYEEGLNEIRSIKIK

O=C(NCCc1ccn(-c2ccccc2)n1)c1cc(NC2CC2)ncc1Cl [Compound 36-9]
Ki (APH(2”)-IVa [1]): 13.4 µM

O=C(Nc1ccc(O)cc1)Nc1ccc(F)cc1 [Compound 37]
ΔTm at 500 µM (APH(2”)-IVa [2]): 1.17 °C

Nc1cncc(-c2cc[nH]n2)c1 [Compound 58]
ΔTm at 500 µM (APH(2”)-IVa [2]): 1.18 °C

O=Cc1cncc(-c2cc[nH]n2)c1 [Compound 66]
ΔTm at 500 µM (APH(2”)-IVa [2]): 0.54 °C

COC(=O)c1cncc(-c2cc[nH]n2)c1 [Compound 67]
ΔTm at 500 µM (APH(2”)-IVa [2]): 1.16 °C

Nc1cc(-c2ccn[nH]2)ccn1 [Compound 68]
Ki (APH(2”)-IVa [1]): 81.9 µM | ΔTm at 500 µM (APH(2”)-IVa [2]): 1.29 °C

O=C(O)c1c[nH]c2ncc(Cl)cc12 [Compound 79]
Ki (APH(2”)-IVa [1]): 27.5 µM

NC(=O)c1c[nH]c2ncc(Cl)cc12 [Compound 80]
Ki (APH(2”)-IVa [1]): 10.3 µM

CNC(=O)c1c[nH]c2ncc(Cl)cc12 [Compound 81]
Ki (APH(2”)-IVa [1]): 9.47 µM

CN(C)C(=O)c1c[nH]c2ncc(Cl)cc12 [Compound 82]
Ki (APH(2”)-IVa [1]): 19.7 µM

Clc1cnc2[nH]ccc2c1-c1cn[nH]c1 [Compound 84]
Ki (APH(2”)-IVa [1]): 1.58 µM

Clc1cnc2[nH]ccc2c1-c1ccc[nH]1 [Compound 85]
Ki (APH(2”)-IVa [1]): 1.74 µM

Clc1cnc2[nH]ccc2c1-c1ccsc1 [Compound 86]
Ki (APH(2”)-IVa [1]): 1.75 µM

Nc1ccccn1 [Compound F68]
Inhibition (APH(2”)-IVa [3]): 11% | Ki (APH(2”)-IVa [1]): 260 µM | ΔTm at 500 µM (APH(2”)-IVa [2]): -0.27 °C

Nc1ccc(Cl)cn1 [Compound F69]
Inhibition relative to F68 (APH(2”)-IVa [3]; 500 µM, times more inhibition than F68): 6.2 times

c1cnc2[nH]ccc2c1 [Compound F136, 7-azaindole]
ΔTm at 500 µM (APH(2”)-IVa [2]): 0.06 °C

CC(=O)c1cc2ccccc2oc1=O [Compound F144]
ΔTm at 500 µM (APH(2”)-IVa [2]): 0.09 °C

OCc1c[nH]c2ncccc12 [Compound F355, 3-hydroxymethyl-7-azaindole]
ΔTm at 500 µM (APH(2”)-IVa [2]): -0.41 °C

C[C@@H](O)[C@H]1C(=O)N2C(C(=O)O)=C(S[C@@H]3CN[C@H](CNS(N)(=O)=O)C3)[C@H](C)[C@H]12 [Doripenem]
MIC [4, 7]: 0.5 to 1 µg/mL (≈ 1.19 to 2.38 µM) | MIC [4, 8]: 0.25 µg/mL (≈ 0.595 µM) | MIC (S. aureus C0032 [5]; [9]): > 4 µg/mL

C[C@@H](O)[C@H]1C(=O)N2C(C(=O)O)=C(S[C@@H]3CN[C@H](C(=O)Nc4cccc(C(=O)O)c4)C3)[C@H](C)[C@H]12 [Ertapenem]
MIC [4, 7]: > 2 µg/mL | MIC [4, 8]: 8 to 16 µg/mL (≈ 16.8 to 33.6 µM) | MIC (S. aureus C0032 [5]; [9]): 4 µg/mL (≈ 8.41 µM)

CNC(C)C1CCC(N)C(OC2C(N)CC(N)C(OC3OCC(C)(O)C(NC)C3O)C2O)O1 (centres unmarked) [Gentamicin]
MIC [4, 7]: 2 µg/mL (≈ 4.19 µM) | MIC [4, 8]: 2 µg/mL (≈ 4.19 µM) | MIC (S. aureus C0032 [5]; [9]): < 1 µg/mL

C[C@@H](O)[C@H]1C(=O)N2C(C(=O)O)=C(SCCN=CN)C[C@H]12 [Imipenem]
MIC [4, 7]: > 2 µg/mL | MIC [4, 8]: 2 µg/mL (≈ 6.68 µM)

C[C@@H](O)[C@H]1C(=O)N2C(C(=O)O)=C(S[C@@H]3CN[C@H](C(=O)N(C)C)C3)[C@H](C)[C@H]12 [Meropenem]
MIC [4, 7]: 0.5 to 1 µg/mL (≈ 1.3 to 2.61 µM) | MIC [4, 8]: 0.063 to 0.125 µg/mL (≈ 0.164 to 0.326 µM) | MIC (S. aureus C0032 [5]; [9]): > 4 µg/mL

[H]/N=C(/N)N[C@H]1[C@H](O)[C@@H](O)[C@H](O[C@@H]2O[C@@H](C)[C@](O)(C=O)[C@H]2O[C@@H]2O[C@@H](CO)[C@H](O)[C@@H](O)[C@@H]2NC)[C@@H](N/C(N)=N\[H])[C@@H]1O [Streptomycin]
MIC [4, 7]: 32 µg/mL (≈ 55 µM) | MIC [4, 8]: 64 µg/mL (≈ 110 µM) | MIC (S. aureus C0032 [5]; [9]): 2 to 4 µg/mL (≈ 3.44 to 6.88 µM)

kanamycin A [reference compound]
MIC ([4]; P. aeruginosa 1676, aph(3')-IIb): 128 µg/mL | MIC ([4]; P. aeruginosa 1761, aph(3')-IIb): 128 µg/mL | MIC ([4]; P. aeruginosa 1766, aph(3')-IIb): 128 µg/mL | MIC ([4]; P. aeruginosa 1781, aph(3')-IIb): 512 µg/mL | MIC ([4]; P. aeruginosa 1869, aph(3')-IIb aac(6')-Ib3): 1024 µg/mL | MIC ([4]; P. aeruginosa C0214, aph(3')-IIb): 256 to 512 µg/mL | MIC ([4]; P. aeruginosa C0307, aph(3')-IIb): 64 to 128 µg/mL | MIC ([4]; P. aeruginosa C0307, aph(3')-IIb, listed as Kanamycin A): 64 to 128 µg/mL | MIC of kanamycin A (S. aureus C0032 [6]; 0.125 µg mL^−1 imipenem, [83] 0 µg mL^−1, 18 h at 37 °C): 4096 µg/mL | checkerboard well reading (growth) (S. aureus C0032 [6]; kanamycin A 2 µg.mL-1): 0.337 | checkerboard well reading (growth) (S. aureus C0032 [6]; kanamycin A 4 µg.mL-1): 0.322 | checkerboard well reading (growth) (S. aureus C0032 [6]; kanamycin A 8 µg.mL-1): 0.304 | checkerboard well reading (growth) (S. aureus C0032 [6]; kanamycin A 16 µg.mL-1): 0.292 | checkerboard well reading (growth) (S. aureus C0032 [6]; kanamycin A 32 µg.mL-1): 0.272 | checkerboard well reading (growth) (S. aureus C0032 [6]; kanamycin A 64 µg.mL-1): 0.258 | checkerboard well reading (growth) (S. aureus C0032 [6]; kanamycin A 128 µg.mL-1): 0.312 | MIC (S. aureus C0032 [5]): 4096 µg/mL | MIC of kanamycin A (P. aeruginosa C0307; 0 µg mL^−1 imipenem): 64 µg/mL | MIC of kanamycin A (P. aeruginosa C0307; 0.05 µg mL^−1 imipenem): 64 µg/mL | checkerboard well reading (growth) (P. aeruginosa C0307; Supp. Figure 3 A, kanamycin A 2 µg.mL-1): 1.208 | checkerboard well reading (growth) (P. aeruginosa C0307; Supp. Figure 3 A, kanamycin A 4 µg.mL-1): 1.193 | checkerboard well reading (growth) (P. aeruginosa C0307; Supp. Figure 3 A, kanamycin A 8 µg.mL-1): 1.188 | checkerboard well reading (growth) (P. aeruginosa C0307; Supp. Figure 3 A, kanamycin A 16 µg.mL-1): 1.223 | checkerboard well reading (growth) (P. aeruginosa C0307; Supp. Figure 3 A, kanamycin A 32 µg.mL-1): 1.192 | checkerboard well reading (growth) (P. aeruginosa C0307; Supp. Figure 3 A, kanamycin A 64 µg.mL-1): 0.162 | checkerboard well reading (growth) (P. aeruginosa C0307; Supp. Figure 3 A, kanamycin A 128 µg.mL-1): 0.039 | checkerboard well reading (growth) (P. aeruginosa C0307; Supp. Figure 3 B, kanamycin A 2 µg.mL-1): 1.210 | checkerboard well reading (growth) (P. aeruginosa C0307; Supp. Figure 3 B, kanamycin A 4 µg.mL-1): 1.193 | checkerboard well reading (growth) (P. aeruginosa C0307; Supp. Figure 3 B, kanamycin A 8 µg.mL-1): 1.143 | checkerboard well reading (growth) (P. aeruginosa C0307; Supp. Figure 3 B, kanamycin A 16 µg.mL-1): 1.167 | checkerboard well reading (growth) (P. aeruginosa C0307; Supp. Figure 3 B, kanamycin A 32 µg.mL-1): 1.151 | checkerboard well reading (growth) (P. aeruginosa C0307; Supp. Figure 3 B, kanamycin A 64 µg.mL-1): 0.174 | checkerboard well reading (growth) (P. aeruginosa C0307; Supp. Figure 3 B, kanamycin A 128 µg.mL-1): 0.043
